Here are results for six compounds from patent publication US9138433B2, “Indole alkaloid compounds as melanogenesis promoters and uses thereof” (NEW YORK UNIVERSITY, priority 2010, dated 2015).

One test concerns melan-a cells. The test is described as follows: Melanin assay in cultured murine melanocytes (melan-a). The format is cell-based. The following applies: melanin content, 72 hours incubation. The procedure:
The Spectrum Collection library consisting of 2000 drug compounds or natural products was screened to identify novel pigmentation inhibitors or stimulators in cultured murine melanocytes (melan-a). Compounds were dissolved in dimethylsulfoxide (DMSO) to a final concentration of 10 mM. Screening was performed with cultured melanocytes in 24-well plates followed by melanin assay (see below). A minimum change of 50% in melanin formation was established as significant for a pigmentation inhibitor or stimulator. DMSO was used as a negative control and the widely used depigmenting agent, hydroquinone, was used as a positive control on every plate. Primary screening was performed at a final concentration of 1 μM and potential candidates from the primary screening were reconfirmed in duplicate at final concentrations of 1 and 5 μM.
Melan-a cells were plated at 5×10^4 cells per well in 1 ml of culture media in 24-well plates the day before adding the library compounds. All compounds were added at the indicated final concentrations. Cells were harvested after 72 hours of incubation, and melanin assay was performed.
For further test and mechanism of action studies, the compounds were purchased from either Sigma or MicroSource. These compounds were dissolved in dimethylsulfoxide (DMSO) to a final concentration of 10 mM, and were tested for their effect on melanin synthesis at the indicated final concentrations.
For the primary and secondary screening, cells were harvested and dissolved in 200 μl of 2N NaOH in 20% DMSO at 70° C. A 180-μl aliquot of the resulting solution was measured for absorbance at 490 nm.
Cells are harvested in extraction buffer (1% Triton X-100, 50 mM Tris, 2 mM EDTA, 150 mM NaCl, pH 7.5) containing a complete protease inhibitor cocktail (Roche). The lysates were centrifuged at 14,000 rpm for 10 minutes at 4° C. BCA protein assay kit (Pierce) was used to measure the protein concentrations of the supernatants, and bovine serum albumin was used as a standard. The remaining pellets were incubated with 100 μl ethanol-ether (1:1) for 10 minutes at room temperature. After removing the ethanol-ether, the pellets were dissolved in 200 μl of 2N NaOH in 20% DMSO at 70° C. A 180-μl aliquot of the resulting solution was measured for absorbance at 490 nm. The melanin contents were normalized to the total amount of protein.

Test [1] has as its system Tyr, Tryp-1 or Lamp-1 in melan-a cells. The test is described as follows: Sub-cellular localization of Tyr, Tyrp-1, Lamp-1 in melan-a cells (immunofluorescence). The format is cell-based, murine. Particulars: 10 μM, 72 hrs at 37° C., FIGS. 4A and 4B. The procedure: Cells were cultured on cover slips, incubated with or without 10 μM pubescine for 72 hrs at 37° C. The cells were fixed with −20° C. methanol for 5 min and stained by immunofluorescence with antibodies for Tyr, Tyrp-1 and/or Lamp-1. The slides were analyzed with a confocal microscope (LSM 510, Zeiss).

Test [2] deals with Tyr gene family proteins and gp100 in melan-a cells. The test is described as follows: Cellular levels of Tyr gene family proteins and gp100 in melan-a cells (immunoblot). Format: cell-based, murine. Particulars: various concentrations, 72 hrs, FIG. 3. As for the experimental part:
Melan-a cells were incubated with various concentrations of pubescine for 72 hrs. Cell lysates were prepared and separated by 7.5% sodium dodecyl sulfate-polyacrylamide gel and transferred to Immobilon-P membranes. Tyrosinase gene family proteins were detected with antibodies against each protein. The results are set forth in the gel of FIG. 3.
For orientation: A western blot detects proteins with antibodies after separation by electrophoresis.

In test [3] the test system is Asian skin equivalent (MEL-A). The test is described as follows: MelanoDerm pigmentation assay, Asian skin equivalent (MEL-A). The format is cell-based, human. As for the experimental part: MelanoDerm™, made by MatTek Corp., is a viable reconstituted three-dimensional human skin equivalent containing normal melanocytes and keratinocytes that are derived from African-American (MEL-B), Asian (MEL-A) or Caucasian (MEL-C) donors. Both MEL-A and MEL-B tissues were used in the current study, and they were maintained in the NMM-113 medium as recommended by the manufacturer.
Pubescine (from Sigma) was dissolved in 30% ethanol: 70% propylene glycol to a final concentration of 1.0 mM (equal to 356.6 μg/ml), and this was maintained constant and used on all samples tested. A 25 μl of its aliquot was applied topically to the MelanoDerm™ tissue (MEL-B) on Days 0, 1, 3, 6, 8 and 10. The MelanoDerm™ tissues were fed every other day with 5 ml fresh NMM-113. Prior to each application, the tissues were washed with 1 ml PBS to remove any residual test compound. Tissues were fixed on Days 10 and 13 for microscopic analysis and histological evaluation. In addition, duplicate tissues were frozen on Days 10 and 13 for the melanin assay.
Similar experiments were performed on Asian skin equivalent (MEL-A) except: the treatments were applied on Days 0, 1, 3, 6, 8, 10 and 13. Tissues were taken out on Days 13 and 16 for the various assays. […]
Procedure 1: the effects of pubescine on melanin synthesis in MEL-A or B were evaluated by light microscopy (views from the top surface of the tissue). […]

In the test with melan-a cells, `COC(=O)[C@H]1[C@H]2C[C@H]3c4[nH]c5ccccc5c4CCN3C[C@@H]2CC[C@@H]1O` [ID 1, Corynanthine] came in with a % after treatment @ 1 μM of 111% and a % after treatment @ 5 μM of 211%.

In the test with melan-a cells, `CC[C@H]1[C@@H]2C[C@H]3[C@@H]4N(C)c5ccccc5[C@]45C[C@@H]([C@H]2[C@H]5O)N3[C@@H]1O` [ID 2, Ajmaline, reference compound] displayed a % after treatment @ 1 μM of 117% and a % after treatment @ 5 μM of 206%.

In the test on melan-a cells, `COC(=O)C1=CO[C@@H](C)[C@H]2CN3CCc4c([nH]c5ccccc45)[C@@H]3C[C@H]12` [ID 3, Ajmalicine, reference compound] displayed a % after treatment @ 1 μM of 106% and a % after treatment @ 5 μM of 133%.

In the test on melan-a cells, `COC(=O)[C@H]1[C@H]2C[C@@H]3c4[nH]c5cc(OC)ccc5c4CCN3C[C@H]2C[C@@H](OC(=O)c2cc(OC)c(OC)c(OC)c2)[C@@H]1OC` [ID 4, Reserpine, reference compound] had a % after treatment @ 1 μM of 117% and a % after treatment @ 5 μM of 133%.

As to `COc1ccc2c3c([nH]c2c1)[C@@H]1C[C@H]2[C@@H](C[C@@H](O)[C@H](OC)[C@H]2C(=O)O)CN1CC3` [ID 5, Reserpic Acid], in the test on melan-a cells, the % after treatment @ 1 μM is 111% and the % after treatment @ 5 μM came out at 217%.

`COC(=O)C1=CO[C@@H](C)[C@H]2CN3CCc4c([nH]c5cc(OC)ccc45)[C@@H]3C[C@H]12` [ID 6, Pubescine]: the “Sub-cellular localization of Tyr, Tryp-1 or Lamp-1” value in test [1] is on record as “does not alter the sub-cellular localization”. In addition, the “Cellular levels of tyrosinase family proteins and gp100” value in test [2] is “increases cellular levels of tyrosinase family proteins and gp100 in a dose-dependent manner”. For the same compound, the “Fontana-Masson staining, melanin content” value in test [3] (Asian skin equivalent (MEL-A), FIG. 6) was “increase in the melanin content”. Besides, the “Melanin content increase of Asian skin equivalent (MEL-A)” value in test [3] (pubescine 1.0 mM topical, 25 μl, FIG. 7) is reported as roughly 40%. In the test on melan-a cells, this compound came in with a % after treatment @ 1 μM of 172% and a % after treatment @ 5 μM of 267%.
